Read-outs that look alike come from different tables or passages of the source.
Key:
[1] = test system: HeLa (human cervical carcinoma) cells; experiment: Cell growth assay (XTT), HeLa; assay type: cell-based; conditions: 72 h drug exposure, read-out: Antiproliferative activity IC50 HeLa
Protocol: (§1) The presence of mycoplasma was routinely checked with MycoAlert kit (Lonza-Cambrex) and only mycoplasma-free cells were used in the experiments. Tumour cell lines were kindly provided by Dr Faustino Mollinedo from Centro de Investigaciones Biológicas Margarita Salas, Madrid, Spain. To determine cell growth, cells in exponential growth phase were seeded (100 µL/well in 96-well plates) with appropriate cell concentration (1.5 × 10^4 cells/mL for MCF7, HeLa and HEK-293 and 3 × 10^4 cells/mL for HT-29) in complete DMEM or RPMI 1640 medium (see above) at 37 °C and 5% CO2 atmosphere. After 24 h incubation, to allow cells to attach to the plates, all compounds were added at 1 µM concentration (10 µL/well in 96-well plates) and the effect on the proliferation was evaluated 72 h post-treatment. Compounds showing antiproliferative effects at tested concentration were selected for IC50 calculation (50% inhibitory concentration compared to the untreated controls) from 10^−5 to 10^−10 M concentration. Nonlinear curves fitting the experimental data were carried out for each compound. […] A freshly prepared mixture solution of XTT labelling reagent with 0.02% (v/v) PMS (N-methyl-dibenzopyrazine methyl sulfate) electron coupling reagent was added to cells (50 µL/well in 96-well plates, the total volume of 160 µL/well) and were incubated during the corresponding time according to each cell line (4 h for MCF7 and HeLa and 6 h for HT-29 and HEK-293) in a humidified atmosphere (37 °C, 5% CO2). The absorbance of the formazan product generated was measured at a test wavelength of 450 nm using a multi-well plate reader (Ultra Evolution, Tecan, Männedorf, Suiza). Compounds were dissolved in DMSO and the final solvent concentrations never exceeded 0.5% (v/v). The control wells included treated cells with 0.5% (v/v) DMSO and the positive control. 10 µM verapamil was included as a control for the HT-29 cell line. Measurements were performed in triplicate, and each experiment was repeated three times.

[2] = test system: MCF7 (human breast carcinoma) cells; experiment: Cell growth assay (XTT), MCF7; assay type: cell-based; conditions: for IC50: Homo sapiens, MCF7, 72 h drug exposure, XTT, read-out: Antiproliferative activity IC50 MCF7
Protocol: as §1

[3] = target: T1, microtubular protein isolated from calf brain (Bos taurus, UniProt P81947+Q6B856); experiment: Inhibition of tubulin polymerisation (turbidity); assay type: biochemical; conditions: for TPI % 10 µM: 10 µM compound, 1.5 mg/mL microtubular protein; for IC50: in vitro tubulin polymerisation inhibition, read-out: TPI IC50
T1 construct: isolated from calf brain according to the modified Shelanski method; from tissue; host or cells: calf brain
Protocol: Microtubular protein was isolated from calf brain according to the modified Shelanski method[23]^,[24] by two cycles of temperature-dependent assembly/disassembly and stored at −80 °C. Before each use, protein concentration is determined by Bradford method[25] taking BSA as standard. Tubulin polymerisation was monitored using a Helios α spectrophotometer by measuring the increase in turbidity at 450 nm, caused by a shift from 4 °C to 37 °C, which allows the in vitro microtubular protein to depolymerise and to polymerise, respectively. The assay was carried out in quartz cuvettes containing 1.5 mg/mL microtubular protein and the ligand (except for control cuvette with only DMSO at the same concentration) in a mixture of 0.1 M MES buffer, 1 mM EGTA, 1 mM MgCl2, 1 mM β-ME, and 1.5 mM GTP at pH 6.7 (final volume 500 µL). Cuvettes were preincubated at 20 °C for 30 min, to allow ligand binding to tubulin, and subsequently cooled on ice for 10 min. Then, the experiment starts at 4 °C to establish the initial baseline. The assembly process was initiated by a temperature shift to 37 °C and the turbidity produced by tubulin polymerisation can be measured by an absorbance increase. After reaching a stable plateau, the temperature was switched back to 4 °C to return to the initial absorption values (to confirm the reversible nature of the monitored process and to determine whether or not the microtubular protein has stabilized). The difference in amplitude between the stable plateau and the initial baseline of the curves was taken as the degree of tubulin polymerisation for each experiment. […] All compounds were tested at 10 µM concentration. IC50 values were calculated for compounds that inhibit tubulin polymerisation more than 50% at 10 µM. […] All the measurements were carried out in at least two independent experiments using microtubular protein from different preparations.

[4] = test system: HT-29 (human colon carcinoma) cells; experiment: Cell growth assay (XTT), HT-29, alone or with verapamil; assay type: cell-based
Protocol: as §1, with “Compounds showing antiproliferative effects at tested concentration were selected for IC50 calculation (50% inhibitory concentration compared to the untreated controls) from 10^−5 to 10^−10 M concentration.” left out

[5] = Homo sapiens, HT-29, 72 h drug exposure, XTT, read-out: Antiproliferative activity IC50 HT-29
[6] = 72 h, in the presence of Pgp/MDR1 inhibitor verapamil (10 µM), read-out: Antiproliferative activity IC50 HT-29 Verap

T1 sequence (Q6B856 whole entry): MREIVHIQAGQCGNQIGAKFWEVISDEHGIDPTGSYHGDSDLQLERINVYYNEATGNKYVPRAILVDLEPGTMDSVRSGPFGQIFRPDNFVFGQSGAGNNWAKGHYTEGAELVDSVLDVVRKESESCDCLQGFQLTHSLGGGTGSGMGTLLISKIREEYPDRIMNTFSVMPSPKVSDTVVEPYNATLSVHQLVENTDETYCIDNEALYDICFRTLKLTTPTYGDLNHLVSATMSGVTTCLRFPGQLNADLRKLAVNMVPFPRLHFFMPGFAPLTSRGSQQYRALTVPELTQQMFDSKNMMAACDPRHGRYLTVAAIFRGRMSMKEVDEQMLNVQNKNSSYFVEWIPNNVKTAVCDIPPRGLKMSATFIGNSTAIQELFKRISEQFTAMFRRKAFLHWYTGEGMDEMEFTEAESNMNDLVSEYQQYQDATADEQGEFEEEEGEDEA
T1 sequence (P81947 whole entry): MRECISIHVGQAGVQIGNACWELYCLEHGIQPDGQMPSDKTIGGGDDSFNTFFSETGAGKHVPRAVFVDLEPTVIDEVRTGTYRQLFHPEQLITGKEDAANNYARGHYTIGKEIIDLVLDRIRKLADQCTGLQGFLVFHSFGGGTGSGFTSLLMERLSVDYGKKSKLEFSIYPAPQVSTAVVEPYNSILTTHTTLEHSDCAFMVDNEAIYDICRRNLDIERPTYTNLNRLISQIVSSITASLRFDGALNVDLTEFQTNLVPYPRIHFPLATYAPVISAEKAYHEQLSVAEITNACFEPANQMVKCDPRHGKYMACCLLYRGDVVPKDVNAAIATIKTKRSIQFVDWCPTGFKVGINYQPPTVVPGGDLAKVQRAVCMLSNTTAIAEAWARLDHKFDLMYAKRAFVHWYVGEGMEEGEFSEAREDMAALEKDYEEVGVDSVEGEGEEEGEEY

SMILES | IC50 [1] [nM] | IC50 [2] [nM] | TPI % 10 µM [3] [%] | IC50 [3] [nM] | IC50 [4, 5] [nM] | melting point [°C] | IC50 [4, 6] [nM] | Difference in HT-29 IC50 values from co-treatment with MDR inhibitor ([4]; without vs with verapamil 10 µM) | Fold more potent against MCF7 than against HeLa ([2]; ratio of IC50 values)
COc1ccc(S(=O)(=O)Nc2cc(OC)cc(OC)c2)cc1 [Compound 1, N-(3,5-dimethoxyphenyl)-4-methoxybenzenesulphonamide] | > 1000 | > 1000 | 0 | > 10000 | > 1000 | 115 to 122 |  |  | 
CCN(c1cc(OC)cc(OC)c1)S(=O)(=O)c1ccc(OC)cc1 [Compound 3, N-(3,5-dimethoxyphenyl)-N-ethyl-4-methoxybenzenesulphonamide] | > 1000 | > 1000 | 0 | > 10000 | > 1000 | 109 to 118 |  |  | 
COc1ccc(S(=O)(=O)N(CC#N)c2cc(OC)cc(OC)c2)cc1 [Compound 4, N-(cyanomethyl)-N-(3,5-dimethoxyphenyl)-4-methoxybenzenesulphonamide] | > 1000 | > 1000 | 0 | > 10000 | > 1000 | 92 to 96 |  |  | 
CCOC(=O)CN(c1cc(OC)cc(OC)c1)S(=O)(=O)c1ccc(OC)cc1 [Compound 5, Ethyl N-(3,5-dimethoxyphenyl)-N-((4-methoxyphenyl)sulphonyl)glycinate] | > 1000 | > 1000 | 0 | > 10000 | > 1000 |  |  |  | 
COc1ccc(S(=O)(=O)N(Cc2ccccc2)c2cc(OC)cc(OC)c2)cc1 [Compound 6, N-benzyl-N-(3,5-dimethoxyphenyl)-4-methoxybenzenesulphonamide] | > 1000 | > 1000 | 0 | > 10000 | > 1000 | 146 to 150 |  |  | 
COc1ccc(S(=O)(=O)N(C(=O)OCc2ccccc2)c2cc(OC)cc(OC)c2)cc1 [Compound 7, Benzyl (3,5-dimethoxyphenyl)((4-methoxyphenyl)sulphonyl)carbamate] | > 1000 | > 1000 | 0 | > 10000 | > 1000 | 129 to 131 |  |  | 
CCOC(=O)CN(c1cc(OC)c(Br)cc1OC)S(=O)(=O)c1ccc(OC)cc1 [Compound 26, Ethyl N-(4-bromo-2,5-dimethoxyphenyl)-N-((4-methoxyphenyl)sulphonyl)glycinate] | 577 | 700 | 28 | > 10000 | 2100 |  | 867 |  | 
CCOC(=O)N(c1cc(OC)c(Br)cc1OC)S(=O)(=O)c1ccc(OC)cc1 [Compound 27, Ethyl (4-bromo-2,5-dimethoxyphenyl)((4-methoxyphenyl)sulphonyl)carbamate] | 377 | 220 | 44 | > 10000 | 525 |  | 170 | higher than 3 fold | 
COc1ccc(S(=O)(=O)N(CC2CO2)c2cc(OC)c(Br)cc2OC)cc1 (stereo not drawn) [Compound 28, N-(4-bromo-2,5-dimethoxyphenyl)-4-methoxy-N-(oxiran-2-ylmethyl)benzenesulphonamide] | 495 |  | 32 | > 10000 | 860 |  |  |  | 
COc1ccc(S(=O)(=O)N(Cc2ccccc2)c2cc(OC)c(OC)cc2OC)cc1 [Compound 37, N-benzyl-4-methoxy-N-(2,4,5-trimethoxyphenyl)benzenesulphonamide] | 833 |  | 7 | > 10000 | 1250 | 130 to 139 |  |  | 
COc1ccc(S(=O)(=O)Nc2cc(OC)c(OC)c(OC)c2)cc1 [TMP[41], N-(3,4,5-trimethoxyphenyl)-4-methoxyphenylsulphonamide, reference compound] | 240 |  |  |  |  |  | 975 |  | 

The next lines start with results.

IC50 [1] [nM] | IC50 [2] [nM] | TPI % 10 µM [3] [%] | IC50 [3] [nM] | IC50 [4, 5] [nM] | melting point [°C] | IC50 [4, 6] [nM] | Difference in HT-29 IC50 values from co-treatment with MDR inhibitor ([4]; without vs with verapamil 10 µM) | SMILES | Fold more potent against MCF7 than against HeLa ([2]; ratio of IC50 values)
388 | 180 | 69 | 4400 |  |  |  |  | COc1ccc(S(=O)(=O)Nc2cccnc2Nc2ccc(O)cc2)cc1 [ABT-751, reference compound] | 
497 | 99 | 10 | > 10000 | 495 |  | 293 |  | COc1ccc(S(=O)(=O)N(C)c2cc(OC)c(Br)c(OC)c2)cc1 [Compound 8a, N-(4-bromo-3,5-dimethoxyphenyl)-4-methoxy-N-methylbenzenesulphonamide] | 4–7 fold
417 |  | 0 | > 10000 | 610 |  |  |  | CCN(c1cc(OC)c(Br)c(OC)c1)S(=O)(=O)c1ccc(OC)cc1 [Compound 9a, N-(4-bromo-3,5-dimethoxyphenyl)-N-ethyl-4-methoxybenzenesulphonamide] | 
310 | 335 | 0 | > 10000 | 450 |  | 533 |  | COc1ccc(S(=O)(=O)N(Cc2ccccc2)c2cc(OC)c(Br)c(OC)c2)cc1 [Compound 10a, N-benzyl-N-(4-bromo-3,5-dimethoxyphenyl)-4-methoxybenzenesulphonamide] | 
> 1000 | > 1000 | 0 | > 10000 | > 1000 |  |  |  | COc1ccc(S(=O)(=O)N(Cc2ccccc2)c2cc(OC)cc(OC)c2Br)cc1 [Compound 10b, N-benzyl-N-(2-bromo-3,5-dimethoxyphenyl)-4-methoxybenzenesulphonamide] | 
> 1000 | > 1000 | 0 | > 10000 | > 1000 |  |  |  | COc1ccc(S(=O)(=O)N(Cc2ccccc2)c2cc(OC)c(Br)c(OC)c2Br)cc1 [Compound 10c, N-benzyl-N-(2,4-dibromo-3,5-dimethoxyphenyl)-4-methoxybenzenesulphonamide] | 

— publication PMC8205030, “Methoxy and bromo scans on N-(5-methoxyphenyl) methoxybenzenesulphonamides reveal potent cytotoxic compounds, especially against the human breast adenocarcinoma MCF7 cell line” (Journal of Enzyme Inhibition and Medicinal Chemistry, 2021)
